Laboratory results as given in patent US20240287130A1, “COMPOUND FOR ALCOHOLIC LIVER INJURY, PREPARATION METHOD, COMPOSITION, FOOD AND USE” (CHENGDU INNOHEPOREM BIOTECH CO., LTD., priority 2021, published 2024).

Experiments:
[1] = system: mouse alcoholic liver injury model; test: Effect of product (a) on alcoholic liver injury (Example 6): six months alcohol feeding, then one month of intervention in normal liquid feed; assay type: in vivo, C57 mice; conditions: one month intervention after six months alcohol; for proportion of fat deposition in the total liver area (oil red O staining): non-intervention group 0.68, FIG. 16; for ALT level in serum: normal diet group 12.03, non-intervention group 44.84, FIG. 14
Description: (§1) This experiment used the Lieber-DeCarli alcoholic fatty liver modeling method. Lieber-DeCarli feed was purchased from Nantong Trophic Animal Feed High-Tech Co., Ltd. The specific method is as follows: C57 mice (purchased from TROPHIC Animal Feed High-Tech Co. Ltd, China, the same below) were fed with normal solid maintenance feed, adapted to the feeding environment for at least one week, then were fed with maltodextrin diet for a week of transition, and then fed with Lieber-DeCarli feed. The alcohol concentration of Lieber-DeCarli feed was 3% in the first week, and the alcohol concentration was increased by 0.5% every week until reaching an alcohol concentration of 5%. The animals were continued to be fed with feed containing 5% alcohol. C57 mice were fed with Lieber-DeCarli feed for 12 weeks to establish a model of alcoholic liver injury.
30 C57 mice were subjected to adaptive feeding for 1 week, and then randomly divided into a normal diet group (n=6) and an alcohol diet group (n=24) according to body weight. In the alcohol diet group, a mouse alcoholic liver injury model was established by feeding mice with Lieber-DeCarli feed for 24 weeks according to the method of Example 3. After the modeling was completed, the mice were randomly divided into 4 groups, namely the non-intervention group (EtOH(6m)+Normal(1m), n=6), the zinc glutathione intervention group (EtOH(6m)+Zn(GSH)2(1m), n=6), the zinc intervention group (EtOH(6m)+Zn(1m), n=6), and the glutathione intervention group (EtOH(6m)+GSH(1m), n=6). The remaining normal diet group was named the normal group (Normal (7m) group, n=5).
Different intervention substances were added to the normal liquid feed for 1 month. The feed of the zinc glutathione intervention group was added with Zn(GSH)2SO4 at an amount of 1 mg Zn per 10 mL of feed (GSH was 9.35 mg/10 mL) for one month of intervention. The feed of the zinc intervention group was added with ZnSO4 at an amount of 1 mg Zn per 10 mL of feed. The feed of the glutathione intervention group was added with glutathione at an amount of 9.35 mg GSH per 10 mL of feed.
(§2) At the end of the experiment in each group, the animals were weighed, blood was collected, and materials were collected.
(§3) Blood collection: orbital blood collection was performed.
(§4) Liver: The animals were killed by cervical dislocation. The mice were cut along the midline of the abdomen to expose the abdomen and the liver was then peeled off. The intact liver was peeled off and separated into the different lobes.
(§5) Tissue distribution of each lobe of the liver: The left lobe was separated into three sections and the right lobe was separated into two sections. The first sections of the left lobe and right lobe were used to make pathological sections for histological examination. The second sections of the left lobe and right lobe were used for zinc measurement. The remaining third section of the left lobe was stored in liquid nitrogen for analysis such as molecular detection.
Biochemical analysis of serum: Alanine aminotransferase (ALT) in blood samples was analyzed using a colorimetric method.
Oil red O staining of frozen sections: Frozen sections were stained with ORO stain solution and the nuclei were counterstained with hematoxylin. […] The area of the ORO positive area was measured using Image Pro-Plus 6.0 software, and the ratio of the positive area to the total area was calculated.
(§6) Data processing and statistical analysis: All experimental data herein were analyzed using GraphPad Prime 6 statistical analysis software. Student t test was used for single factor analysis between two groups, and p<0.05 was considered to be statistically different.
Determination method: After blood was collected, the collected whole blood was placed at 25° C. for 30 minutes. After the blood coagulated, it was centrifuged at 3500 rpm for 15 minutes to separate the serum, and various parameters were measured timely. […]

[2] = system: mouse alcoholic liver injury model; test: Effect of product (a) on alcoholic liver injury (Example 4): Lieber-DeCarli alcohol diet, three months of intervention; assay type: in vivo, C57 mice
Description: as §1
30 C57 mice were subjected to adaptive feeding for 1 week, and then randomly divided into a normal diet group (n=9) and an alcohol diet group (n=21) according to body weight. In the alcohol diet group, a mouse alcoholic liver injury model was established by feeding mice with Lieber-DeCarli feed for 12 weeks according to the method of Example 3. After the modeling was completed, the mice were randomly divided into 3 groups, one of which was the pre-intervention group (EtOH (3m), n=3) (meanwhile, 4 animals were randomly selected from the normal diet group to be control of the pre-intervention group (Normal (3m) group, n=4). The pre-intervention group and the pre-intervention control group were collected immediately after the modeling was completed. The other two groups were the non-intervention group (EtOH (6m), n=10), and the zinc/glutathione intervention group (EtOH(6m)/Zn(GSH)2(3m), n=8) respectively. The remaining normal diet group was named the normal group (Normal (6m) group, n=5).
Zn(GSH)2·SO4 was added to the daily Lieber-DeCarli alcohol diet at the amount of 1 mg Zn/10 mL of feed for three months of invention.
as §2, §3
as §4, with “lobes. The left lobe was separated into three sections using a blade, and the right lobe was separated into two sections.” for “lobes.”
as §5, with “Other lobes were” for “The remaining third section of the left lobe was”, “detection. […]” for “detection.”
Measurement of zinc concentration: The zinc concentration in liver tissue was determined using atomic absorption spectrometry (atomic absorption spectrometer: ICE3500, Thermo Company).
as §6

[3] = EtOH(6 m)/Zn(GSH)2 group, end of experiment

Compound	ALT level relative to the zinc glutathione intervention group [1]	proportion of fat deposition in the total liver area (oil red O staining) [1]	ALT level in serum [1]	fat deposition (oil red O staining of liver) ([2]; EtOH(6m)/Zn(GSH)2(3m) vs non-intervention group, FIG. 9)	Liver weight [2, 3]	Liver weight/final body weight [2, 3]	Final body weight ([2]; EtOH(6 m)/Zn(GSH)2 group, end of experiment, average)	survival rate ([2]; alcohol-fed mice, intervention after modeling, 1 mg Zn/10 mL feed, FIG. 8)	zinc content in the liver ([2]; atomic absorption spectrometry, intervention group, FIG. 12)	area of fat deposition (percentage of fat deposition in the total liver area) ([2]; oil red O staining, vs non-intervention group, FIG. 10)	vesicular steatosis (HE staining) ([2]; vs non-intervention group, FIG. 11)
N[C@@H](CCC(=O)N[C@@H](CS)C(=O)NCC(=O)O)C(=O)O [glutathione, N-(N-L-γ-glutamyl-L-cysteinyl)-glycine]	about 2 times	0.62	22.86	–	–	–	–	–	–	–	–
O=S(=O)([O-])[O-].[Zn+2] [zinc, ZnSO4]	about 2 times	0.36	22.03	–	–	–	–	–	–	–	–
[Zn^2+(L-GSH)2]·SO4^2− [Zn(GSH)2·SO4]	–	0.21	8.96	significantly improved	1.26 ± 0.25 g	5.62 ± 0.80%	22.53 ± 1.67 g	significantly increased	significantly increased	significantly reduced	significantly reduced
